According to patent publication US20140296068A1, “PESTICIDAL COMPOSITIONS AND PROCESSES RELATED THERETO” (Dow AgroSciences LLC, priority 2011, published 2014):

What was measured:
[1] = test system: Sweetpotato Whitefly-Crawler (Bemisia tabaci) (BEMITA); test: Insecticidal test for sweetpotato whitefly-crawler in foliar spray assay on cotton plants; format: in vivo; details: 200 ppm foliar spray on cotton plants, graded after 8-9 days, Abbott-corrected % control, read-out: BEMITA % Ctrl @ 200 ppm
Protocol: Cotton plants grown in 3-inch pots, with 1 small (3-5 cm) true leaf, were used as test substrate. The plants were placed in a room with whitefly adults. Adults were allowed to deposit eggs for 2-3 days. After a 2-3 day egg-laying period, plants were taken from the adult whitefly room. Adults were blown off leaves using a hand-held Devilbiss sprayer (23 psi). Plants with egg infestation (100-300 eggs per plant) were placed in a holding room for 5-6 days at 82° F. and 50% RH for egg hatch and crawler stage to develop. Four cotton plants were used for each treatment. Compounds (2 mg) were dissolved in 1 mL of acetone solvent, forming stock solutions of 2000 ppm. The stock solutions were diluted 10× with 0.025% Tween 20 in H2O to obtain a test solution at 200 ppm. A hand-held Devilbiss sprayer was used for spraying a solution to both sides of cotton leaf until runoff. Reference plants (solvent check) were sprayed with the diluent only. Treated plants were held in a holding room for 8-9 days at approximately 82° F. and 50% RH prior to grading. Evaluation was conducted by counting the number of live nymphs per plant under a microscope. Insecticidal activity was measured by using Abbott's correction formula and presented in “Table 4. Biological Data for GPA (MYZUPE) and sweetpotato whitefly-crawler (BEMITA)” (see column “BEMITA”): […]

[2] = test system: Green Peach Aphid (Myzus persicae) (MYZUPE); test: Bioassays on Green Peach Aphid (GPA), foliar spray on cabbage seedlings; format: in vivo; details: 72 h, 200 ppm foliar spray on cabbage seedlings, graded after three days, Abbott-corrected % control, read-out: MYZUPE % Ctrl @ 200 ppm
Protocol: Certain molecules disclosed in this document were tested against GPA using procedures described in the following example. In the reporting of the results, the “Table 3: GPA (MYZUPE) and sweetpotato whitefly-crawler (BEMITA) Rating Table” was used (See Table Section).
Cabbage seedlings grown in 3-inch pots, with 2-3 small (3-5 cm) true leaves, were used as test substrate. The seedlings were infested with 20-50 GPA (wingless adult and nymph stages) one day prior to chemical application. Four pots with individual seedlings were used for each treatment. Test compounds (2 mg) were dissolved in 2 mL of acetone/methanol (1:1) solvent, forming stock solutions of 1000 ppm test compound. The stock solutions were diluted 5× with 0.025% Tween 20 in H2O to obtain the solution at 200 ppm test compound. A hand-held aspirator-type sprayer was used for spraying a solution to both sides of […] leaves until runoff. Reference plants (solvent check) were sprayed with the diluent only containing 20% by volume of acetone/methanol (1:1) solvent. Treated plants were held in a holding room for three days at approximately 25° C. and ambient relative humidity (RH) prior to grading. […] Percent Control was measured by using Abbott's correction formula (W. S. Abbott, “A Method of Computing the Effectiveness of an Insecticide” J. Econ. Entomol. 18 (1925), pp. 265-267) as follows. […]

`C#CCN(C(=O)CCSC)n1cc(-c2cccnc2)nc1C` [Compound 42] gave an inhibition at 200 ppm [1] of 80 to 100% and an inhibition at 200 ppm [2] of 0 to 80%.
